Tests used:
serine proteases = experiment: IgG degradation by aminobenzamidine purified serine protease fraction F4 with and without PMSF; type: biochemical, Trichoderma reesei; conditions: PMSF 5 mM; pH 5.5, 37°C, 20 hours
Description: Serine proteases comprise a major family of proteases that have been identified as antibody degrading enzymes. Accordingly, serine proteases were purified from Trichoderma supernatant. The serine proteases were first affinity purified from fermentation culture supernatants with a p-aminobenzamidine sepharose 4 fast flow resin (GE healthcare #17-5123-10). 15 ml of the fermentation culture supernatant was batch bound to the resin in 35 ml of binding buffer (0.05 M Tris-HCL, 0.5 M NaCl, pH 7.4). After packing and washing the column with the same binding buffer, the column was eluted with 0.05 M glycine, pH 3.0. The fractions were then neutralized with 1M Tris HCL, pH 8.8.
In total 1.7 mg of protein was purified from the affinity column. When the peak fractions were run on a 4-15% SDS-PAGE gel, several major bands (˜110 kD, 53 kD, 39 kD, 29 kD) and many more minor bands were seen. The peak fraction protein mixture (F4) was then tested for protease activity by incubated a sample of the F4 with human IgG1 in sodium citrate buffer (50 mM, pH 5.5) at 37° C. for 20 hours. The samples were incubated both in the presence and absence of the serine protease inhibitor PMSF (5 mM). The incubated samples were then analyzed by immunoblotting with an anti-IgG heavy chain AP conjugate antibody (Sigma #A3188) and an anti-IgG light chain AP conjugate antibody (Sigma #A3812) diluted 1:30,000 in TBST.

[1] = test system: SIP purified proteases (PEP2, PEP3, PEP4, PEP5, GAP1, SLP2); experiment: Protease activity of SIP purified fractions against casein with inhibitors (EnzChek); type: biochemical, Trichoderma reesei; conditions: pH 5.5; for proteases inhibited: SIP, LIP, pepstatin A 60 μM, SBTI 200 μg/ml
Description: Protease activity was then tested against casein both in the presence and absence of protease inhibitors. Protease activity against casein was tested using the EnzChek protease assay kit (Molecular probes #E6638, green fluorescent casein substrate). The working stock solution was prepared by diluting the stock to 10 μg ml in 50 mM sodium citrate, pH 5.5. The purified protease fractions (10 μl) were diluted with […] of sodium citrate, pH 5.5. 100 μl of the diluted substrate was combined with the diluted protease fractions in a 96 well sample plate. The plate was then covered and kept at 37° C. for one to three hours. Fluorescence readings were taken at one, two, and three hours with a Varioskan fluorescent plate reader (Thermo Scientific) using 485 nm excitation and 530 nm emission.
The SIP inhibitor peptide, pepstatin A, LIP peptide, SBTI, and chymostatin were used as inhibitors. […] SIP, LIP, and pepstatin A were used at a concentration of 60 μM, and SBTI was used at a concentration of 200 μg/ml.

[2] = test system: M369 human growth hormone strain; experiment: hGH production in 24 well cultures with inhibitors and supplements; type: cell-based, Trichoderma reesei; conditions: 24 well culture, pH 4.5, day 4 immunoblot
Description: To evaluate what inhibitors would best stabilize production of hGH, 24 well cultures of these strains were performed. The M369 human growth hormone strain (Δpep1Δtsp1Δslp1Δgap1Δgap2) was grown along with single components or with combinations of the following: trypsin and subtilisin inhibitor SBTI, the acidic protease inhibitor peptide SIP, the acidic protease inhibitor peptide LIP, the aspartic protease inhibitor pepstatin A free peptide, pepstatin A immobilized to agarose beads, the trypsin and subtilisin inhibitor BBI from lima bean, the […] chymostatin, and BSA. Three independent wells were chosen for control wells where no inhibitors or supplements were added. These two strains were grown in 3 ml of TrMM with diammonium citrate without ammonium sulfate, 100 mM PIPPS, 20 g/L spent grain extract, 40 g/L lactose adjusted to pH 4.5. The 24 well plates were shaken at 800 rpm, 85% humidity, and 28° C. The cultures were grown for 6 days and covered with an air permeable membrane.
Inhibitors were added first on day 1 and then daily beginning on day 3. 100 μl samples were taken from the culture wells beginning on day 3. The mycelium was spun down for 5 minutes at 13 k and the supernatant collected. From the culture supernatant 12 μl was loaded in a 4-20% SDS PAGE gel and immunoblotting made on nitrocellulose with mouse anti-hGH antibody (2 μg/ml) and goat anti-mouse IgG AP conjugated secondary antibody diluted 1:10,000 in TBST.
Estimating the expression levels relative to the 200 ng control sample, the control wells produced between 3-6 mg/L of hGH, the BSA (0.25%)/SIP (50 μM)/8BTI (0.2 mg/ml) treatment produced 24.5 mg/L, the SIP (50 μM)/8BTI (0.2 mg/ml) treatment produced 26.6 mg/L, and the pepstatin A beads/SBTI (0.2 mg/ml) addition yielded 24.5 mg/L of hGH. Therefore, using a combination of inhibitors and additives worked best increasing the production levels by at least 4-fold. The critical parameter was to include an aspartic protease inhibitor into the mix.

[3] = test system: tryptic and chymotryptic proteases; experiment: In vitro inhibitor treatment: rituximab heavy chain degradation in M44 supernatant; type: biochemical, Trichoderma reesei; conditions: 100 μM chymostatin or 1 mg/ml SBTI; M44 supernatant 6 mg/ml, pH 5.5
Description: Based on the knowledge that the heavy chain is cleaved by tryptic and chymotryptic proteases, inhibitors of these two enzyme classes were tested against antibody degradation both in vitro and in culture experiments utilizing an antibody producing T. reesei strain. The inhibitors soybean trypsin inhibitor (SBTI) and chymostatin were tested, as they have been previously shown in in vitro experiments to stabilize antibody heavy chains.
Chymostatin and SBTI were analyzed in vitro with culture supernatant. Supernatant from a fed batch fermentor culture was diluted to 6 mg/ml with sodium citrate buffer pH 5.5 (pH 5.5; 28° C.; 20 g/L spent grain extract, 60 g/L lactose). […] The strain was grown in Trichoderma minimal medium supplemented with 20 g/l spent grain extract and 60 g/l lactose at pH 5.5 and 28° C.
To this diluted supernatant 0.05 μg μl of rituximab, 100 μM chymostatin, 1 mg/ml SBTI, or a combination of both inhibitors was added in a total volume of 50 μl and sampled at 0, 1, and 19 hours to assess the early and late degradation of the rituximab antibody heavy chain. The resulting heavy chain products were analyzed by immunoblot using and anti-heavy chain AP conjugated antibody (Sigma #A3188) diluted 1:30,000 in TBST (FIG. 35). […] Additional fragments were generated after 19 hours, the two major products remained.

[4] = test system: rituximab antibody producing strain; experiment: Treatment of T. reesei rituximab cultures with inhibitors; type: cell-based, Trichoderma reesei
Description: The effectiveness of the inhibitors was also tested with the rituximab antibody producing strain, which contains a VALEKR linker sequence and the pep1 deletion. This strain was grown in triplicate, in small flasks both in presence or absence of chymostatin, SBTI, or pepstatin A. The small shake flasks contained 50 ml of TrMM plus lactose (40 g/l), spent grain extract (20 g/l), and buffer with 100 mM PIPPS at pH 5.5. The SBTI inhibitor was added to the culture at final concentrations of either 100 μg/ml or 500 μg/ml. Chymostatin was used at 100 μM, and pepstatin A was used at 10 μM. Each of the three inhibitors was added to the cultures daily on day 2, 3, 4, and 5.
Growth of the cultures was followed daily by pH from day 2 until day 7. […] In the PIPPS buffered cultures, the pH decreased from an initial pH of 5.5 down to a pH of 4.8 after day 6. With chymostatin and pepstatin A the cultures were monitored up to day 7. On day 7 the average pH for the control bottles was 4.6, while the average pH for chymostatin treated cultures was 4.9, and the average pH of pepstatin A treated cultures was 5.0.
Culture supernatant samples (30 μl) were also collected on days 3, 4, and 5 for analysis of antibody production. The analysis was performed by immunoblots using an anti-IgG heavy chain antibody AP conjugate (Sigma #A3188) and an anti-light chain antibody AP conjugate (Sigma #A3812). Each antibody was diluted 1:30,000 in TBST. The full length rituximab heavy chain is about 51 kD, the rituximab light chain CHBI fusion is about 100 kD, and the free rituximab light chain is about 28 kD.

[5] = test system: aspartic and glutamic protease; experiment: MAB01 heavy chain degradation by SIP purified proteases with and without SIP inhibitor peptide; type: biochemical, Trichoderma reesei; conditions: overnight 37°C, pH 4.0 and pH 5.5
Description: Several additional aspartic proteases were isolated from the T. reesei M277 triple protease deletion strain (pep1, tsp1, slp1). […] The M277 deletion strain was generated as described in Example 4 below. The strain was grown in Trichoderma minimal medium supplemented with 20 g/l spent grain extract, 60 g/l lactose, and 9 g/l casamino acids at pH 5.5 and 28° C. The aspartic proteases were isolated by affinity purification using the SIP peptide (Ac-Phe-Lys-Phe-(AHPPA)-Leu-Arg-NH2) (Kataoka Y. et al. 2005 FEBS Letters 579, pp 2991-2994). The SIP peptide was conjugated to NHS activated agarose resin (Pierce #26196) using the protocol provided by the manufacturer. The SIP affinity resin was used to purify proteases. Fermentation supernatant (15 ml) from the T. reesei M277 strain was then used to batch bind proteases to the resin in 35 ml buffer containing 50 mM sodium acetate, 0.2 M NaCl, pH 3.0 (from fermentation conditions pH 5.5; 28° C.; 9 g/l casaminoacids; 20 g/L spent grain extract, 60 g/L lactose). The column was washed with the same binding buffer and bound protein removed with elution buffer (50 mM Tris-HCL, 1 M NaCl, pH 8.5). […]
The SIP purified proteases were then tested for their ability to degrade the MAB01 antibody heavy chain. […] The collected samples were analyzed by immunoblotting with an anti-IgG heavy chain antibody AP conjugate (Sigma A3188) diluted 1:30,000 in TBST. […]

[6] = third chymostatin culture sample, 100 μM

Row | Compound | IgG degradation by F4 serine protease fraction (serine proteases) | proteases inhibited [1] | inhibition of SIP purified protease activity against casein ([1]; FIG. 11) | effect on hGH production [2] | rituximab heavy chain fragment formation [3] | rituximab heavy chain production vs untreated cultures ([4]; day 5, SBTI 100 or 500 μg/ml, chymostatin 100 μM) | effect on culture growth (followed by pH) ([4]; small shake flasks, inhibitors added daily day 2-5) | full length rituximab heavy chain [4, 6] | heavy chain fragment [4, 6] [%] | aspartic and glutamic protease activities against MAB01 heavy chain [5]
1 | O=S(=O)(F)Cc1ccccc1 [PMSF] | able to inhibit most of the degradation |  |  |  |  |  |  |  |  | 
2 | CC(C)C[C@H](NC(=O)[C@@H](NC(=O)N[C@@H](Cc1ccccc1)C(=O)O)[C@@H]1CCN=C(N)N1)C(=O)N[C@H](C=O)Cc1ccccc1 [chymostatin] |  | inhibited SLP2 | able to inhibit the SLP2 protease | improved the amount of full length product observed | inhibited the initial production of the 42 kDa fragment | increased the amount of full length rituximab heavy chain produced | small reduction in growth | approximately 90% | ~10 | 
3 | Ac-Phe-Lys-Phe-(AHPPA)-Leu-Arg-NH2 (FKFXLR; HELM PEPTIDE1{[ac].F.K.F.[O=C(C[C@H](O)[C@H](Cc1ccccc1)N[*:1])[*:2]].L.R.[am]}$$$$V2.0; SMILES CC(=O)N[C@@H](Cc1ccccc1)C(=O)N[C@@H](CCCCN)C(=O)N[C@@H](Cc1ccccc1)C(=O)N[C@@H](Cc1ccccc1)[C@@H](O)CC(=O)N[C@@H](CC(C)C)C(=O)N[C@@H](CCCNC(=N)N)C(N)=O) [SIP peptide] |  | inhibited both aspartic and glutamic proteases |  | noticeable increase in hGH amount |  |  |  |  |  | inhibited
